Measured values published in ChEMBL document CHEMBL1145240, “Discovery of novel conformationally constrained tropane-based biaryl and arylacetylene ligands as potent and selective norepinephrine transporter inhibitors and potential antidepressants” (Bioorg Med Chem Lett, 2005).

molecular target: Sodium-dependent serotonin transporter (Rattus norvegicus, UniProt P31652); assay: Inhibitory constant against reuptake of [3H]5-HT at serotonin transporter of rat […]; assay type: tissue-based
Sequence (P31652 whole entry): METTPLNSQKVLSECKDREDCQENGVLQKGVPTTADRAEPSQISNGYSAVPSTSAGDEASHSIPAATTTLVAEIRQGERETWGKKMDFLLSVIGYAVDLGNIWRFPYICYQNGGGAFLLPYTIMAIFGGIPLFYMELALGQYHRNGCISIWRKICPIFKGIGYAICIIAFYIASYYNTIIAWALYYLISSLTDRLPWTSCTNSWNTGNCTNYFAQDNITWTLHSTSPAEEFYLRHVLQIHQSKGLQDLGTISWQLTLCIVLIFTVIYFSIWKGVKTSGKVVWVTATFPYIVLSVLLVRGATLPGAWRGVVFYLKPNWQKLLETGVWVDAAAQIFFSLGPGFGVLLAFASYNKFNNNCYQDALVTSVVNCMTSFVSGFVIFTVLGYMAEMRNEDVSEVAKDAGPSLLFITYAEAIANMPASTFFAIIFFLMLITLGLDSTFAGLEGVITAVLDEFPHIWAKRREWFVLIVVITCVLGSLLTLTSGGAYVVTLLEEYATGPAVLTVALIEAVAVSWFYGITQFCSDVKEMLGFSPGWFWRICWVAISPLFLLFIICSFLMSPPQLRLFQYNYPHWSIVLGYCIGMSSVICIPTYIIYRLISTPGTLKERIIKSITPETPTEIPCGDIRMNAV

Row | Compound | Ki
1 | COC(=O)C1C2CC3CCC1N3C/C2=C\c1ccc(-c2ccccc2F)cc1 (configuration not stated) | 466 nM
2 | COC(=O)C1C2CC3CCC1N3C/C2=C\C#Cc1cccc(F)c1 (configuration not stated) | 317 nM
3 | COC(=O)C1C2CC3CCC1N3C/C2=C\C#Cc1ccccc1 (configuration not stated) | 207 nM
4 | COC(=O)C1C2CC3CCC1N3C/C2=C\C#Cc1ccsc1 (configuration not stated) | 86 nM
5 | COC(=O)C1C2CC3CCC1N3C/C2=C\C#Cc1ccc(F)c(F)c1 (configuration not stated) | 69 nM
6 | COC(=O)C1C2CC3CCC1N3C/C2=C\c1ccc(-c2cccc(C(F)(F)F)c2)cc1 (configuration not stated) | 1170 nM
7 | COC(=O)C1C2CC3CCC1N3C/C2=C\c1ccc(-c2ccsc2)s1 (configuration not stated) | 32 nM
8 | COC(=O)C1C2CC3CCC1N3C/C2=C\C#Cc1c(F)cccc1F (configuration not stated) | 32 nM
9 | COC(=O)C1C2CC3CCC1N3C/C2=C\c1ccc(-c2cccc(F)c2)cc1 (configuration not stated) | 138 nM
10 | COC(=O)C1C2CC3CCC1N3C/C2=C\c1ccc(-c2cccc(OC)c2)cc1 (configuration not stated) | 346 nM
11 | COC(=O)C1C2CC3CCC1N3C/C2=C\C#Cc1cc(F)ccc1F (configuration not stated) | 215 nM
12 | COC(=O)C1C2CC[C@@H]3C[C@@H]1/C(=C/c1ccc(-c4cc(F)cc(F)c4)cc1)CN23 (some centres not stated) | 1.2 nM
13 | COC(=O)C1C2CC[C@@H]3C[C@@H]1/C(=C/c1ccc(-c4ccc(F)c(F)c4)cc1)CN23 (some centres not stated) | 295 nM
14 | COC(=O)C1C2CC3CCC1N3C/C2=C\c1ccc(-c2ccc(SC)cc2)cc1 (configuration not stated) | 1080 nM
15 | COC(=O)C1C2CC3CCC1N3C/C2=C\C#Cc1cccs1 (configuration not stated) | 142 nM
16 | COC(=O)C1C2CC3CCC1N3C/C2=C\C#Cc1ccc(C)c(F)c1 (configuration not stated) | 914 nM
17 | COC(=O)C1C2CC3CCC1N3C/C2=C\c1ccc(-c2ccccc2OC)cc1 (configuration not stated) | 1340 nM
18 | COC(=O)C1C2CC3CCC1N3C/C2=C\C#Cc1ccc(F)cc1 (configuration not stated) | 17 nM
19 | COC(=O)C1C2CC3CCC1N3C/C2=C\c1ccc(-c2ccc(F)cc2)cc1 (configuration not stated) | 1390 nM

molecular target: Sodium-dependent dopamine transporter (Rattus norvegicus, UniProt P23977); assay: Inhibitory constant against reuptake of [3H]-DA at dopamine transporter of rat striatal membranes; assay type: cell membranes, Membrane
Sequence (P23977 whole entry): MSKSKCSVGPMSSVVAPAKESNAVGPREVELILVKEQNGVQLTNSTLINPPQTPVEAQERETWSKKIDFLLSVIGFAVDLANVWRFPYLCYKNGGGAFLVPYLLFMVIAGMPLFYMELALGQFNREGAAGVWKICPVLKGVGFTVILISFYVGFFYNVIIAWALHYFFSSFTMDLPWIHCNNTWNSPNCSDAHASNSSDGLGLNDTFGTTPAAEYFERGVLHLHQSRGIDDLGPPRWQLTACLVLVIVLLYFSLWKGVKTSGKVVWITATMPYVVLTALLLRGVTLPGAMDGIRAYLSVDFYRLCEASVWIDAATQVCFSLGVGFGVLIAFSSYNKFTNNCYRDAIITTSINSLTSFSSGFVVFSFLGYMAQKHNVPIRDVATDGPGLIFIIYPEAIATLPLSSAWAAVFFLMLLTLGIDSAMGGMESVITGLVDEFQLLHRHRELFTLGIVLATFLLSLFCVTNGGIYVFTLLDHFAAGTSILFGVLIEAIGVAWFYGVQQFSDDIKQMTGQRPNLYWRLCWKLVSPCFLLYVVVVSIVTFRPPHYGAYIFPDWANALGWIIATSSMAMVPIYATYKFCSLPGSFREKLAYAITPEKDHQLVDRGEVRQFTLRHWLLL

Row | Compound | Ki
20 | COC(=O)C1C2CC3CCC1N3C/C2=C\c1ccc(-c2ccccc2F)cc1 (configuration not stated) | 3400 nM
21 | COC(=O)C1C2CC3CCC1N3C/C2=C\C#Cc1cccc(F)c1 (configuration not stated) | > 10000 nM
22 | COC(=O)C1C2CC3CCC1N3C/C2=C\C#Cc1ccccc1 (configuration not stated) | > 10000 nM
23 | COC(=O)C1C2CC3CCC1N3C/C2=C\C#Cc1ccsc1 (configuration not stated) | > 10000 nM
24 | COC(=O)C1C2CC3CCC1N3C/C2=C\C#Cc1ccc(F)c(F)c1 (configuration not stated) | 3150 nM
25 | COC(=O)C1C2CC3CCC1N3C/C2=C\c1ccc(-c2cccc(C(F)(F)F)c2)cc1 (configuration not stated) | 556 nM
26 | COC(=O)C1C2CC3CCC1N3C/C2=C\c1ccc(-c2ccsc2)s1 (configuration not stated) | 114 nM
27 | COC(=O)C1C2CC3CCC1N3C/C2=C\C#Cc1c(F)cccc1F (configuration not stated) | > 10000 nM
28 | COC(=O)C1C2CC3CCC1N3C/C2=C\c1ccc(-c2cccc(F)c2)cc1 (configuration not stated) | 646 nM
29 | COC(=O)C1C2CC3CCC1N3C/C2=C\c1ccc(-c2cccc(OC)c2)cc1 (configuration not stated) | 114 nM
30 | COC(=O)C1C2CC3CCC1N3C/C2=C\C#Cc1cc(F)ccc1F (configuration not stated) | > 10000 nM
31 | COC(=O)C1C2CC[C@@H]3C[C@@H]1/C(=C/c1ccc(-c4cc(F)cc(F)c4)cc1)CN23 (some centres not stated) | 228 nM
32 | COC(=O)C1C2CC[C@@H]3C[C@@H]1/C(=C/c1ccc(-c4ccc(F)c(F)c4)cc1)CN23 (some centres not stated) | 106 nM
33 | COC(=O)C1C2CC3CCC1N3C/C2=C\c1ccc(-c2ccc(SC)cc2)cc1 (configuration not stated) | 1050 nM
34 | COC(=O)C1C2CC3CCC1N3C/C2=C\C#Cc1cccs1 (configuration not stated) | > 10000 nM
35 | COC(=O)C1C2CC3CCC1N3C/C2=C\C#Cc1ccc(C)c(F)c1 (configuration not stated) | 7070 nM
36 | COC(=O)C1C2CC3CCC1N3C/C2=C\c1ccc(-c2ccccc2OC)cc1 (configuration not stated) | 787 nM
37 | COC(=O)C1C2CC3CCC1N3C/C2=C\C#Cc1ccc(F)cc1 (configuration not stated) | > 10000 nM
38 | COC(=O)C1C2CC3CCC1N3C/C2=C\c1ccc(-c2ccc(F)cc2)cc1 (configuration not stated) | 161 nM

molecular target: T1, Norepinephrine transporter (Rattus norvegicus, UniProt Q9WTR4); assay: Inhibitory constant for [3H]NE reuptake at norepinephrine transporter of rat parietal-occipital cortex
T1 sequence (Q9WTR4 whole entry): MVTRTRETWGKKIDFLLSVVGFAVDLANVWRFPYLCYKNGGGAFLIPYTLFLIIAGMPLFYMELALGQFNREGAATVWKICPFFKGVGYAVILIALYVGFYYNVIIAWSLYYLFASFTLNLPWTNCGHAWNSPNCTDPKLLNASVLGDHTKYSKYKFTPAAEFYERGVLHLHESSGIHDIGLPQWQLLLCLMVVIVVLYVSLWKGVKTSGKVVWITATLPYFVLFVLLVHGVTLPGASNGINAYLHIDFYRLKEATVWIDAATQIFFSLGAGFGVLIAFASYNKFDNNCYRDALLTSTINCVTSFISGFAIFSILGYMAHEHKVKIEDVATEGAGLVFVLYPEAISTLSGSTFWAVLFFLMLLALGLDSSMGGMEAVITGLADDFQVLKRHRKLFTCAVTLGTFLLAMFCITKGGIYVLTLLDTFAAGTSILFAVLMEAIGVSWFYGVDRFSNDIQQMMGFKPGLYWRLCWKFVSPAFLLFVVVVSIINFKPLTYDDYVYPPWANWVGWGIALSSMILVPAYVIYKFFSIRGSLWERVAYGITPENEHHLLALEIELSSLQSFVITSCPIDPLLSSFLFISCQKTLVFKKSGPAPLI

Row | Compound | Ki
39 | COC(=O)C1C2CC3CCC1N3C/C2=C\C#Cc1ccsc1 (configuration not stated) | 22 nM

molecular target: Muscarinic acetylcholine receptor; assay: Inhibition of [3H]QNB binding to muscarinic receptor of rat cortex

Row | Compound | Ki
40 | COC(=O)C1C2CC3CCC1N3C/C2=C\c1ccc(-c2ccccc2F)cc1 (configuration not stated) | > 10000 nM
41 | COC(=O)C1C2CC3CCC1N3C/C2=C\C#Cc1cccc(F)c1 (configuration not stated) | 13500 nM
42 | COC(=O)C1C2CC3CCC1N3C/C2=C\C#Cc1ccccc1 (configuration not stated) | 11900 nM
43 | COC(=O)C1C2CC3CCC1N3C/C2=C\C#Cc1ccsc1 (configuration not stated) | 2740 nM
44 | COC(=O)C1C2CC3CCC1N3C/C2=C\C#Cc1ccc(F)c(F)c1 (configuration not stated) | 7090 nM
45 | COC(=O)C1C2CC3CCC1N3C/C2=C\c1ccc(-c2cccc(C(F)(F)F)c2)cc1 (configuration not stated) | 7060 nM
46 | COC(=O)C1C2CC3CCC1N3C/C2=C\c1ccc(-c2ccsc2)s1 (configuration not stated) | 2140 nM
47 | COC(=O)C1C2CC3CCC1N3C/C2=C\C#Cc1c(F)cccc1F (configuration not stated) | > 10000 nM
48 | COC(=O)C1C2CC3CCC1N3C/C2=C\c1ccc(-c2cccc(F)c2)cc1 (configuration not stated) | > 10000 nM
49 | COC(=O)C1C2CC3CCC1N3C/C2=C\c1ccc(-c2cccc(OC)c2)cc1 (configuration not stated) | 4060 nM
50 | COC(=O)C1C2CC3CCC1N3C/C2=C\C#Cc1cc(F)ccc1F (configuration not stated) | > 10000 nM
51 | COC(=O)C1C2CC[C@@H]3C[C@@H]1/C(=C/c1ccc(-c4cc(F)cc(F)c4)cc1)CN23 (some centres not stated) | 2830 nM
52 | COC(=O)C1C2CC[C@@H]3C[C@@H]1/C(=C/c1ccc(-c4ccc(F)c(F)c4)cc1)CN23 (some centres not stated) | 3400 nM
53 | COC(=O)C1C2CC3CCC1N3C/C2=C\c1ccc(-c2ccc(SC)cc2)s1 (configuration not stated) | > 10000 nM
54 | COC(=O)C1C2CC3CCC1N3C/C2=C\c1ccc(-c2ccc(SC)cc2)cc1 (configuration not stated) | > 10000 nM
55 | COC(=O)C1C2CC3CCC1N3C/C2=C\C#Cc1cccs1 (configuration not stated) | 13900 nM
56 | COC(=O)C1C2CC3CCC1N3C/C2=C\C#Cc1ccc(C)c(F)c1 (configuration not stated) | > 10000 nM
57 | COC(=O)C1C2CC3CCC1N3C/C2=C\c1ccc(-c2ccccc2OC)cc1 (configuration not stated) | > 10000 nM
58 | COC(=O)C1C2CC3CCC1N3C/C2=C\C#Cc1ccc(F)cc1 (configuration not stated) | 15100 nM
59 | COC(=O)C1C2CC3CCC1N3C/C2=C\c1ccc(-c2ccc(F)cc2)cc1 (configuration not stated) | 1060 nM

molecular target: T1, Norepinephrine transporter; assay: Inhibitory constant against reuptake of [3H]NE at norepinephrine transporter of rat parietal-occipital cortex

Row | Compound | Ki
60 | COC(=O)C1C2CC3CCC1N3C/C2=C\c1ccc(-c2ccccc2F)cc1 (configuration not stated) | 393 nM
61 | COC(=O)C1C2CC3CCC1N3C/C2=C\C#Cc1cccc(F)c1 (configuration not stated) | 2110 nM
62 | COC(=O)C1C2CC3CCC1N3C/C2=C\C#Cc1ccccc1 (configuration not stated) | > 10000 nM
63 | COC(=O)C1C2CC3CCC1N3C/C2=C\C#Cc1ccc(F)c(F)c1 (configuration not stated) | 110 nM
64 | COC(=O)C1C2CC3CCC1N3C/C2=C\c1ccc(-c2cccc(C(F)(F)F)c2)cc1 (configuration not stated) | 8.8 nM
65 | COC(=O)C1C2CC3CCC1N3C/C2=C\c1ccc(-c2ccsc2)s1 (configuration not stated) | 5.9 nM
66 | COC(=O)C1C2CC3CCC1N3C/C2=C\C#Cc1c(F)cccc1F (configuration not stated) | 5.3 nM
67 | COC(=O)C1C2CC3CCC1N3C/C2=C\c1ccc(-c2cccc(F)c2)cc1 (configuration not stated) | 5 nM
68 | COC(=O)C1C2CC3CCC1N3C/C2=C\c1ccc(-c2cccc(OC)c2)cc1 (configuration not stated) | 9.4 nM
69 | COC(=O)C1C2CC3CCC1N3C/C2=C\C#Cc1cc(F)ccc1F (configuration not stated) | 1720 nM
70 | COC(=O)C1C2CC[C@@H]3C[C@@H]1/C(=C/c1ccc(-c4cc(F)cc(F)c4)cc1)CN23 (some centres not stated) | 1.3 nM
71 | COC(=O)C1C2CC[C@@H]3C[C@@H]1/C(=C/c1ccc(-c4ccc(F)c(F)c4)cc1)CN23 (some centres not stated) | 0.8 nM
72 | COC(=O)C1C2CC3CCC1N3C/C2=C\c1ccc(-c2ccc(SC)cc2)cc1 (configuration not stated) | 62 nM
73 | COC(=O)C1C2CC3CCC1N3C/C2=C\C#Cc1cccs1 (configuration not stated) | 1570 nM
74 | COC(=O)C1C2CC3CCC1N3C/C2=C\C#Cc1ccc(C)c(F)c1 (configuration not stated) | 52 nM
75 | COC(=O)C1C2CC3CCC1N3C/C2=C\c1ccc(-c2ccccc2OC)cc1 (configuration not stated) | 6.5 nM
76 | COC(=O)C1C2CC3CCC1N3C/C2=C\C#Cc1ccc(F)cc1 (configuration not stated) | 104 nM
77 | COC(=O)C1C2CC3CCC1N3C/C2=C\c1ccc(-c2ccc(F)cc2)cc1 (configuration not stated) | 53 nM
